# Assay results from patent publication US20250195491A1 (AEVIS BIO, INC., priority 2022, published 2025).
# Assays:
# [1] = Stability in human plasma (UPLC-MS quantification); format: in vitro ADME; conditions: FIG. 7B
# Method: To plot a standard calibration curve, the stock sample was diluted by half with acetonitrile from 125 to 0.39 μg/mL to prepare standard solutions for a total of 10 samples at different concentrations, and the calibration curve was plotted as shown in FIG. 7A.
# For the experiment of verifying stability in plasma, 10 μL of the test drug prepared at a concentration of 100 μg/mL was added to 90 μL of human plasma and mixed for 30 seconds, and then immediately after the addition, the plasma-mixed test drug was incubated for 15, 30, 60, or 120 minutes to prepare samples. Afterward, 400 μL of 100% ethyl acetate was added to each sample and extracted using a vortex mixture for 1 minute. […] Initially, the mobile phase B was increased from 5% to 95% until 9 minutes and analyzed, the mobile phase B was maintained 95% until 12 minutes, and then the mobile phase B was lowered to 5% and equilibrated, and used in the subsequent analysis. the flow rate of the mobile phase was 0.3 mL/min, the sample injection volume was 2 μL, and the mass spectrometer was operated in the ESI-positive mode. The spray voltage was set to 3.5 kV, and the flow rates of the nitrogen sheath gas, auxiliary gas, and sweep gas were analyzed as 50, 10, and 1 (arbitrary units), respectively. […]
# TNF-α, IL-1β, and IL-6 = test: Pro-inflammatory cytokine mRNA (RT-PCR) in LPS-stimulated BV-2 cells; format: cell-based, mouse; conditions: BV-2, 30, 10, or 3.33 μM, LPS 1 μg/mL 6 hours, FIG. 5B
# Method: BV-2 was plated in a 6-well plate (Corning, MD, USA) at 5×10^5 cells/well, and cultured using a DMEM medium (Corning, MD, USA) containing 10% fetal bovine serum (Corning, MD, USA) and 100 U/mL of penicillin/streptomycin (Corning, MD, USA) at 37° C. in a 5% CO2 incubator for one day for stabilization. […] 1 μg/mL of LPS (Sigma, USA) was added to all experimental groups excluding the non-inflammation-induced group and allowed to react at 37° C. in a 5% CO2 incubator for 6 hours.
# The drug-treated BV-2 underwent RNA prep according to kit manual using an RNA prep kit (Monarch Total RNA Miniprep kit, NEB, UK), and the concentration was measured using a nanophotometer (NP80, Implen, Germany). According to the concentration of each RNA sample, 1 μg of RNA was added and cDNA was synthesized according to the manual of the cDNA synthesis kit (LunaScript RT SuperMix kit, NEB, UK).
# The expression level of each cytokine in the synthesized cDNA was analyzed and compared using Real-Time PCR (StepOne™Bioscience, USA) equipment. […] The Cr value for the gene of each sample obtained through real-time PCR was normalized by the value of the internal control gene (GAPDH) of each sample, the expression level was estimated inversely by 2ΔΔCT calculation, and the resulting value of each group was quantified and expressed as a percentage relative to the LPS-only treatment group.
# iNOS and COX-2 = iNOS and COX-2 mRNA (RT-PCR) in LPS-stimulated BV-2 cells; format: cell-based, mouse; conditions: BV-2, 30, 10, or 3.33 μM, LPS 1 μg/mL 6 hours, FIG. 6D
# Method: Finally, to determine the mRNA expression levels of iNOS and COX-2, BV-2 was seeded in a 6-well plate (Corning, MD, USA) at 5×10^5 cells/well, and cultured using a DMEM medium (Corning, MD, USA) containing 10% fetal bovine serum (Corning, MD, USA) and 100 U/mL of penicillin/streptomycin (Corning, MD, USA) at 37° C. in a 5% CO2 incubator for one day for stabilization. […] 1 μg/mL of LPS (Sigma, USA) was added to all experimental groups excluding the non-inflammation-induced group and allowed to react at 37° C. in a 5% CO2 incubator for 6 hours.
# The drug-treated BV-2 underwent RNA prep according to the kit manual using an RNA prep kit (Monarch Total RNA Miniprep kit, NEB, UK), and the concentration was measured using a nanophotometer (NP80, Implen, Germany). […]
# The expression level of each oxidative stress-associated gene in the synthesized cDNA was analyzed and compared using Real-Time PCR (StepOne™Bioscience, USA) equipment. […] The Cr value for the gene of each sample obtained through real-time PCR was normalized by the value of the internal control gene (GAPDH) of each sample, the expression level was estimated inversely by 2ΔΔCT calculation, and the resulting value of each group was quantified and expressed as a percentage relative to the LPS-only treatment group.
compound,measurement,setting,value
"Nc1cccc2c1C(=S)N(C1CCC(=O)NC1=O)C2=O (stereo not shown) [3-MP, 3-thiopomalidomide]",stability in human plasma over time,[1]; 0 to 120 minutes,maintained without significant changes in plasma from 0 to 120 minutes
same,plasma level immediately after plasma addition,[1]; 0 minutes,80 µg/mL
same,pro-inflammatory cytokine inhibition effect (mRNA),"TNF-α, IL-1β, and IL-6",higher pro-inflammatory cytokine inhibition effect than pomalidomide
same,mRNA expression of oxidative stress-associated genes (iNOS and COX-2),iNOS and COX-2,can effectively inhibit the mRNA expression of an oxidative stress-associated gene
